Experimental findings from article doi:10.1101/2025.03.30.646141v1 (biorxiv, 2025) are described below.

The target of test [1] is T1, APH(3’)-IIb WT (Pseudomonas aeruginosa, UniProt Q9HWR2).
T1 sequence (Q9HWR2 1-268): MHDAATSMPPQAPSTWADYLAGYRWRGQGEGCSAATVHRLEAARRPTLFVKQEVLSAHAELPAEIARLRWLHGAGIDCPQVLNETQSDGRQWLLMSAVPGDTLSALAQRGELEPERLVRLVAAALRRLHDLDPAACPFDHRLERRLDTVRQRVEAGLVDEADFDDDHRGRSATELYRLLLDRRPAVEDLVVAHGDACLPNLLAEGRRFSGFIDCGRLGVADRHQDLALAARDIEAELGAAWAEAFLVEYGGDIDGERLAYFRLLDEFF
Put plainly: ITC. Type of test: binding.

The target in test [2] is T1, APH(3’)-IIb WT. Put plainly: biochemical.
Test [3] concerns the target T2, APH(3’)-IIb WT (Pseudomonas aeruginosa, UniProt Q9HWR2, M95L).
T2 sequence (Q9HWR2 1-268 M95L): T1 sequence (Q9HWR2 1-268)
Put plainly: PK/LDH coupled assay. Type of test: biochemical. Conditions: 100 µM MgATP, Tris buffer pH 7.5, 25 °C.

On APH(3’)-IIb WT [1], `Nc1ncnc2c1ncn2[C@@H]1O[C@H](COP(=O)(O)OP(=O)(O)O)[C@@H](O)[C@H]1O` [ADP] returned a dissociation constant (Kd) of 4100 ± 500 nM. Regarding `Nc1ncnc2c1ncn2[C@@H]1O[C@H](COP(=O)(O)OP(=O)(O)OP(=O)(O)O)[C@@H](O)[C@H]1O` [ATP], the Kd on APH(3’)-IIb WT [1] is 10000 ± 700 nM. In turn, `CN[C@@H]1[C@@H](O)[C@@H](O[C@@H]2[C@@H](O)[C@H](O[C@H]3O[C@H]([C@@H](C)O)[C@@H](O)[C@H](O)[C@H]3N)[C@@H](N)C[C@H]2N)OC[C@]1(C)O` [Geneticin] registered a Kd at APH(3’)-IIb WT [2] of 1590 ± 310 nM. `NCC[C@H](O)C(=O)N[C@@H]1C[C@H](N)[C@@H](O[C@H]2O[C@H](CN)[C@@H](O)[C@H](O)[C@H]2O)[C@H](O)[C@H]1O[C@H]1O[C@H](CO)[C@@H](O)[C@H](N)[C@H]1O` [amikacin]: the Km at APH(3’)-IIb WT [3] was 54.5 ± 21.5 µM. Further, at APH(3’)-IIb WT [1], the Kd was found to be 177000 ± 22000 nM. `CNC(C)[C@@H]1CC[C@@H](N)[C@@H](O[C@H]2[C@H](O)[C@@H](O[C@H]3OC[C@](C)(O)[C@H](NC)[C@H]3O)[C@H](N)C[C@@H]2N)O1` (stereo partly shown) [gentamicin]: the Kd at APH(3’)-IIb WT [2] is 59 ± 5 nM. Consider `NC[C@H]1O[C@H](O[C@H]2[C@H](O)[C@@H](O[C@H]3O[C@H](CO)[C@@H](O)[C@H](N)[C@H]3O)[C@H](N)C[C@@H]2N)[C@H](O)[C@@H](O)[C@@H]1O` [kanamycin A], for which the Km on APH(3’)-IIb WT [3] was found to be 0.17 ± 0.06 µM. Regarding `NC[C@H]1O[C@H](O[C@H]2[C@H](O)[C@@H](O[C@H]3O[C@H](CO)[C@@H](O)[C@H](N)[C@H]3O)[C@H](N)C[C@@H]2N)[C@H](N)[C@@H](O)[C@@H]1O` [kanamycin B], the Km on APH(3’)-IIb WT [3] came to 0.05 ± 0.03 µM. On APH(3’)-IIb WT [1], this molecule yielded a Kd of 2 ± 1 nM. For `NC[C@@H]1O[C@H](O[C@H]2[C@@H](O)[C@H](O[C@@H]3[C@@H](O)[C@H](N)C[C@H](N)[C@H]3O[C@H]3O[C@H](CN)[C@@H](O)[C@H](O)[C@H]3N)O[C@@H]2CO)[C@H](N)[C@@H](O)[C@@H]1O` [neomycin] the same measures were 0.07 ± 0.06 µM and 12 ± 2 nM.

In the case of `NC[C@@H]1O[C@H](O[C@H]2[C@@H](O)[C@H](O[C@@H]3[C@@H](O)[C@H](N)C[C@H](N)[C@H]3O[C@H]3O[C@H](CO)[C@@H](O)[C@H](O)[C@H]3N)O[C@@H]2CO)[C@H](N)[C@@H](O)[C@@H]1O` [paromomycin], the Km on APH(3’)-IIb WT [3] turned out to be 0.53 ± 0.21 µM. Moreover, the dissociation constant (Kd) at APH(3’)-IIb WT [1] came to 173 ± 8 nM.

As to `NC[C@H]1O[C@H](O[C@H]2[C@H](O[C@@H]3O[C@H](CO)[C@@H](O)[C@H]3O)[C@@H](O)[C@H](N)C[C@@H]2N)[C@H](N)[C@@H](O)[C@@H]1O` [ribostamycin], the Km at APH(3’)-IIb WT [3] came out at 0.21 ± 0.17 µM. The molecule also displayed a Kd at APH(3’)-IIb WT [1] of 10 ± 1 nM. For the molecule `NC[C@H]1O[C@H](O[C@H]2[C@H](O)[C@@H](O[C@H]3O[C@H](CO)[C@@H](O)[C@H](N)[C@H]3O)[C@H](N)C[C@@H]2N)[C@H](N)C[C@@H]1O` [tobramycin], binding on APH(3’)-IIb WT [1] was characterised by a dissociation constant (Kd) of 23 nM.

In general, Kd refers to a measure of binding affinity in units of concentration. Read a high Kd as weaker binding. Usually Km stands for the concentration of substrate that gives half-maximal velocity.
